# Test results as given in patent US20240067662A1, “KRAS INHIBITORS” (Bristol-Myers Squibb Company, priority 2022, published 2024).
# Target: GMPPNP-loaded KRAS G12C (Homo sapiens, UniProt P01116, G12C)
# Experiment: KRAS G12C RAF Disruption Assay (HTRF)
# Type: biochemical
# Conditions: recombinant GMPPNP-loaded KRAS G12C (5 nM), 20 min with compound; GST-RAF1 RBD (9 nM); HTRF signal; read-out: KRASG12C RAF Disruption Assay (IC50)
# In short: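 GMPPNP-loaded KRAS G12C (5 nM) was preincubated with compound for 20 min at room temperature in Tris pH 7.5 buffer with NaCl, MgCl2, DTT and BSA. GST-RAF1 RBD (9 nM) was added for 20 min, then SA-Tb (0.25 nM) for 3 h. IC50 was fitted from the HTRF 520/495 ratio.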
# GMPPNP-loaded KRAS G12C, sequence (P01116 1-188 isoform P01116-2 G12C): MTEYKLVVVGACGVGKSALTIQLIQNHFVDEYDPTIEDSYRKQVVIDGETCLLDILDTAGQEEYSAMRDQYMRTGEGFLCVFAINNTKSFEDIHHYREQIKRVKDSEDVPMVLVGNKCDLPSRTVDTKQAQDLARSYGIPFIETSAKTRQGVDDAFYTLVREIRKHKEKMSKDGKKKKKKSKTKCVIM
row,IC50 [nM],SMILES
1,1300,"C#Cc1c(F)ccc2cc(O)cc(-c3ncc4c(N5CC6CCC(C5)N6C(=O)/C(Cl)=C/c5ccccn5)nc(OC[C@@]56CCCN5C[C@H](F)C6)nc4c3F)c12 [Compound 8, (Z)-1-((1R, 5S)-3-(7-(8-ethynyl-7-fluoro-3-hydroxynaphthalen-1-yl)-8-fluoro-2-(((2R, 7aS)-2-fluorotetrahydro-1H-pyrrolizin-7a(5H)-yl)methoxy)pyrido[4,3-d]pyrimidin-4-yl)-3,8-diazabicyclo[3.2.I]octan-8-yl)-2-chloro-3-(pyridin-yl)prop-2-en-1-one]"
2,110,"C#Cc1cccc2cccc(-c3ncc4c(N(C)C5CCN(C(=O)/C(F)=C/c6nccs6)C5C)nc(OC[C@@]56CCCN5C[C@H](F)C6)nc4c3F)c12 (single isomer, unassigned) [Example 73 cis isomer 1]"
3,6,"N#Cc1c(N)sc2c(F)ccc(-c3ncc4c(N5CCN(C(=O)/C(F)=C/c6nccs6)CC5)nc(OC[C@@]56CCCN5C[C@H](F)C6)nc4c3F)c12 [Compound 122, 2-amino-7-fluoro-4-(8-fluoro-4-(4-((Z)-2-fluoro-3-(thiazol-2-yl)acryloyl)piperazin-1-yl)-2-(((7aS)-2-fluorotetrahydro-1H-pyrrolizin-7a(5H)-yl)methoxy)pyrido[4,3-d]pyrimidin-7-yl)benzo[b]thiophene-3-carbonitrile]"
4,5100,"Cn1ncc2cccc(-c3ncc4c(N5CCN(C(=O)/C(F)=C/c6nccs6)CC5)nc(OC[C@@]56CCCN5C[C@H](F)C6)nc4c3F)c21 [Example 39, (Z)-2-fluoro-1-(4-(8-fluoro-2-(((2R, 7aS)-2-fluorotetrahydro-1H-pyrrolizin-7a(5H)-yl)methoxy)-7-(I-methyl-1H-indazol-7-yl)pyrido[4,3-d]pyrimidin-4-yl)piperazin-1-yl)-3-(thiazol-2-yl)prop-2-en-1-one]"
5,470,"Cc1ccc2[nH]ncc2c1-c1ncc2c(N3CCN(C(=O)/C(F)=C/c4ccccn4)CC3)nc(OC[C@@]34CCCN3C[C@H](F)C4)nc2c1F [Example 30, (Z)-2-fluoro-1-(4-(8-fluoro-2-(((2R, 7aS)-2-fluorotetrahydro-1H-pyrrolizin-7a(5H)-yl)methoxy)-7-(5-methyl-1H-indazol-4-yl)pyrido[4,3-d]pyrimidin-4-yl)piperazin-1-yl)-3-(pyridin-2-yl)prop-2-en-1-one]"
6,4200,"C#Cc1cccc2cccc(-c3ncc4c(N(C)C5CCN(C(=O)/C(F)=C/c6ccccn6)CC5)nc(OC[C@@]56CCCN5C[C@H](F)C6)nc4c3F)c12 [Compound 131, (Z)-1-(4-((7-(8-ethynylnaphthalen-1-yl)-8-fluoro-2-(((2R, 7aS)-2-fluorotetrahydro-1H-pyrrolizin-7a(5H)-yl)methoxy)pyrido[4,3-d]pyrimidin-4-yl)(methyl)amino)piperidin-1-yl)-2-fluoro-3-(pyridin-2-yl)prop-2-en-1-one]"
7,79,"C#Cc1c(F)ccc2cc(O)cc(-c3ncc4c(N5C[C@H]6CC[C@@H](C5)N6C(=O)/C(F)=C/c5nccn5C)nc(OC[C@@]56CCCN5C[C@H](F)C6)nc4c3F)c12 [Compound 5, (Z)-1-((1R, 5S)-3-(7-(8-ethynyl-7-fluoro-3-hydroxynaphthalen-1-yl)-8-fluoro-2-(((2R, 7aS)-2-fluorotetrahydro-1H-pyrrolizin-7a(5H)-yl)methoxy)pyrido[4,3-d]pyrimidin-4-yl)-3,8-diazabicyclo[3.2.1]octan-8-yl)-2-fluoro-3-(1-methyl-1H-imidazol-2-yl)prop-2-en-1-one]"
8,7,"C#Cc1c(F)ccc2cc(O)cc(-c3ncc4c(N5CCN(C(=O)/C(F)=C/c6nccs6)C[C@@H]5C)nc(OC[C@@]56CCCN5C[C@H](F)C6)nc4c3F)c12 [Example 64, (Z)-1-((S)-4-(7-(8-ethynyl-7-fluoro-3-hydroxynaphthalen-1-yl)-8-fluoro-2-(((2R, 7aS)-2-fluorotetrahydro-1H-pyrrolizin-7a(5H)-yl)methoxy)pyrido[4,3-d]pyrimidin-4-yl)-3-methylpiperazin-1-yl)-2-fluoro-3-(thiazol-2-yl)prop-2-en-1-one]"
9,5000,"C#Cc1cccc2cccc(-c3ncc4c(N5CC6(CCN(C(=O)/C(F)=C/c7ccccn7)CC6)C5)nc(OC[C@@]56CCCN5C[C@H](F)C6)nc4c3F)c12 [Compound 91, (Z)-1-(2-(7-(8-ethynylnaphthalen-1-yl)-8-fluoro-2-(((2R, 7aS)-2-fluorotetrahydro-1H-pyrrolizin-7a(5H)-yl)methoxy)pyrido[4,3-d]pyrimidin-4-yl)-2,7-diazaspiro[3.5]nonan-7-yl)-2-fluoro-3-(pyridin-2-yl)prop-2-en-1-one]"
10,4,"C#Cc1c(F)ccc2cc(O)cc(-c3ncc4c(N5CCN(C(=O)/C(F)=C/c6ncccn6)CC5)nc(OC[C@@]56CCCN5C[C@H](F)C6)nc4c3F)c12 [Example 57, (Z)-1-(4-(7-(8-ethynyl-7-fluoro-3-hydroxynaphthalen-1-yl)-8-fluoro-2-(((2R, 7aS)-2-fluorotetrahydro-1H-pyrrolizin-7a(5H)-yl)methoxy)pyrido[4,3-d]pyrimidin-4-yl)piperazin-1-yl)-2-fluoro-3-(pyrimidin-2-yl)prop-2-en-1-one]"
11,550,"C#Cc1ccc(F)c2cccc(-c3ncc4c(N5CCN(C(=O)/C(F)=C/c6ncccn6)CC5)nc(OC[C@@]56CCCN5C[C@H](F)C6)nc4c3F)c12 [Compound 97, (Z)-1-(4-(7-(8-ethynyl-5-fluoronaphthalen-1-yl)-8-fluoro-2-(((2R, 7aS)-2-fluorotetrahydro-1H-pyrrolizin-7a(5H)-yl)methoxy)pyrido[4,3-d]pyrimidin-4-yl)piperazin-1-yl)-2-fluoro-3-(pyrimidin-2-yl)prop-2-en-1-one]"
12,16000,"C#Cc1cccc2cccc(-c3ncc4c(N5CCC6(CCN6C(=O)/C(F)=C/c6ccccn6)C5)nc(OC[C@@]56CCCN5C[C@H](F)C6)nc4c3F)c12 (single isomer, unassigned) [Compound 104]"
13,100,"C#Cc1cccc2cccc(-c3ncc4c(N5CCN(C(=O)/C(F)=C/c6ccccn6)CC5)nc(OC[C@@]56CCCN5C[C@H](F)C6)nc4c3F)c12 [Example 29, (Z)-1-(4-(7-(8-ethynylnaphthalen-1-yl)-8-fluoro-2-(((2R, 7aS)-2-fluorotetrahydro-1H-pyrrolizin-7a(5H)-yl)methoxy)pyrido[4,3-d]pyrimidin-4-yl)piperazin-1-yl)-2-fluoro-3-(pyridin-2-yl)prop-2-en-1-one]"
14,4300,"C#Cc1cccc2cccc(-c3ncc4c(N5CCC6C5CCN6C(=O)/C(F)=C/c5ccccn5)nc(OC[C@@]56CCCN5C[C@H](F)C6)nc4c3F)c12 (single isomer, unassigned) [Compound 108]"
15,270,"CN1CCC[C@H]1COc1nc(N2CCN(C(=O)/C(F)=C/c3ccccn3)[C@@H](CC#N)C2)c2cnc(-c3cccc4ccccc34)c(F)c2n1 [Compound 19B, 2-((S)-4-(8-fluoro-2-(((S)-1-methylpyrrolidin-2-yl)methoxy)-7-(naphthalen-1-yl)pyrido[4,3-d]pyrimidin-4-yl)-1-((Z)-2-fluoro-3-(pyridin-2-yl)acryloyl)piperazin-2-yl)acetonitrile]"
16,2.5,"C#Cc1cccc2cccc(-c3ncc4c(N(C)C5CCN(C(=O)/C(F)=C/c6ccccn6)C5C)nc(OC[C@@]56CCCN5C[C@H](F)C6)nc4c3F)c12 (single isomer, unassigned) [Example 74 trans isomer 1]"
17,390,"N#CC[C@H]1CN(c2nc(OC[C@@]34CCCN3C[C@H](F)C4)nc3c(F)c(-c4cc(Cl)ccc4C(F)(F)F)ncc23)CCN1C(=O)/C(F)=C/c1nccs1 [Example 46, 2-((S)-1-((Z)-2-fluoro-3-(thiazol-2-yl)acryloyl)-4-(8-fluoro-7-(5-chloro-2-(trifluoromethyl)phenyl)-2-(((2R, 7aS)-2-fluorotetrahydro-1H-pyrrolizin-7a(5H)-yl)methoxy)pyrido[4,3-d]pyrimidin-4-yl)piperazin-2-yl)acetonitrile]"
18,30,"C#Cc1cccc2cccc(-c3ncc4c(N(C)[C@H]5CN(C(=O)/C(F)=C/c6ccccn6)C[C@H]5F)nc(OC[C@@]56CCCN5C[C@H](F)C6)nc4c3F)c12 [Compound 128, (Z)-1-((3S,4R)-3-((7-(8-ethynylnaphthalen-1-yl)-8-fluoro-2-(((2R, 7aS)-2-fluorotetrahydro-1H-pyrrolizin-7a(5H)-yl)methoxy)pyrido[4,3-d]pyrimidin-4-yl)(methyl)amino)-4-fluoropyrrolidin-1-yl)-2-fluoro-3-(pyridin-2-yl)prop-2-en-1-one]"
19,110,"C#Cc1cccc2cccc(-c3ncc4c(N5CC[C@@H]6CN(C(=O)/C(F)=C/c7ccccn7)C[C@@H]65)nc(OC[C@@]56CCCN5C[C@H](F)C6)nc4c3F)c12 [Compound 85, (Z)-1-((3aR, 6aR)-1-(7-(8-ethynylnaphthalen-1-yl)-8-fluoro-2-(((2R, 7aS)-2-fluorotetrahydro-1H-pyrrolizin-7a(5H)-yl)methoxy)pyrido[4,3-d]pyrimidin-4-yl)hexahydropyrrolo[3,4-b]pyrrol-5(1H)-yl)-2-fluoro-3-(pyridin-2-yl)prop-2-en-1-one]"
20,24000,"C#Cc1cccc2cccc(-c3ncc4c(N5CC6(CCN(C(=O)/C(F)=C/c7ncccn7)CC6)C5)nc(OC[C@@]56CCCN5C[C@H](F)C6)nc4c3F)c12 [Compound 92, (Z)-1-(2-(7-(8-ethynylnaphthalen-1-yl)-8-fluoro-2-(((2R, 7aS)-2-fluorotetrahydro-1H-pyrrolizin-7a(5H)-yl)methoxy)pyrido[4,3-d]pyrimidin-4-yl)-2,7-diazaspiro[3.5]nonan-7-yl)-2-fluoro-3-(pyrimidin-2-yl)prop-2-en-1-one]"
